Six compounds from ChEMBL document CHEMBL1201862, “PubChem BioAssay data set” (2004) can be followed below.

Holding throughout (assay): NCI-60 cell line screen, 48 h
Test [1] relates to 786-0.
Test [2] deals with A549.
In test [3] the test system is CAKI-1.
For test [4], the system named is COLO 205.
Test [5] concerns DU-145.
Test [6] relates to EKVX.
In test [7] the test system is HCT-116.
Test [8] has as its system HCT-15.
Test [9] concerns HL-60.
Test [10] relates to HT-29.
The subject of test [11] is IGROV-1.
The subject of test [12] is MDA-MB-231.
Test [13] has as its system OVCAR-4.
In test [14] the test system is RXF 393.
In test [15] the test system is SF-295.
Test [16] deals with SF-539.
The test system of test [17] is SK-MEL-28.
Test [18] deals with SK-MEL-2.
Test [19] has as its system SK-OV-3.
The subject of test [20] is SN12C.

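Protocol summary: plate cells (96-well), add compound at 5 concentrations, incubate 48 h, interpolate endpoints linearly. GI50 marks 50% less growth.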 Active and inactive are the calls of the source. Rule as the data show it: active = GI50 up to about 1.1 µM and inactive = higher. Positions of bridges follow the written chain, without caps; N, C: chain ends. Non-standard residues stand in square brackets, D forms with d. Residues, ends and D or L forms follow the SMILES beside them. *: point of attachment. PhAc = O=C(Cc1ccccc1)*

As for `CC(C)=NNc1ncnc2[nH]cnc12`, the GI50 in test [1] is 5.83 µM (inactive); in test [2] it was 4.89 µM (inactive); in test [3] it was 3.66 µM (inactive); in [4], 5.94 µM (inactive); in test [5], 3.85 µM (inactive); in test [6], 12.9 µM (inactive). Further, the GI50 in [7] was 3.71 µM (inactive); in [8], 6.01 µM; in [9], 3.71 µM (inactive); in [10] it was 6.04 µM (inactive); in test [11], 7.82 µM (inactive); in test [12], 6.95 µM (inactive). Moreover, the GI50 is 9.95 µM (inactive) in test [13]; 6.87 µM (inactive) in test [14]; 8.55 µM (inactive) in test [15]; 36.4 µM (inactive) in test [16]; 63 µM (inactive) in test [17]; 3.82 µM (inactive) in test [18]. For the same compound, the GI50 was 3.88 µM (inactive) in test [19] and 14.5 µM (inactive) in [20].
`COc1ccc(NC(=O)/C(CC2=Nc3ccc([N+](=O)[O-])cc3NC2O)=N\NC(=O)C[N+](C)(C)C)c(OC)c1` (stereo not given): the GI50 is 30.1 µM (inactive) in test [1]; 40.5 µM (inactive) in [2]; > 100 µM (inactive) in test [3]; 43 µM (inactive) in test [4]; 47.3 µM (inactive) in test [5]; 54.7 µM (inactive) in test [6]. In addition, the GI50 in test [7] was 30.4 µM (inactive); in [8], 45.9 µM; in [9], > 100 µM (inactive); in [10] it was > 100 µM (inactive); in test [11], 80.7 µM (inactive); in test [12], 12.9 µM (inactive). In addition, the GI50 in test [13] is 80 µM (inactive); in test [14], 21.6 µM (inactive); in test [15], > 100 µM (inactive); in test [16], 26.5 µM (inactive); in test [17], 97.9 µM (inactive); in [18], > 100 µM (inactive). In addition, the figures for the GI50 in [19] and in test [20] were 89.9 µM (inactive) and 61 µM (inactive), respectively.
`Cc1ccc(S(=O)(=O)n2cc(-c3cnc(N)c(Br)n3)c3ccccc32)cc1`: the GI50 was 2.33 µM (inactive) in test [1]; 2.22 µM (inactive) in [2]; 3.32 µM (inactive) in test [3]; 2.46 µM (inactive) in [4]; 1.31 µM (inactive) in [5]; 3.48 µM (inactive) in [6]. Moreover, the GI50 in [7] was 0.83 µM (active); in test [8], 1.21 µM; in test [9] it was 0.372 µM (active); in test [10], 1.47 µM (inactive); in test [11], 1.3 µM (inactive); in test [12], 2.54 µM (inactive). Besides, the GI50 in test [13] was 5.18 µM (inactive); in [14], 0.484 µM (active); in [15], 1.95 µM (inactive); in test [16] it was 1.15 µM (inactive); in [17], 6.27 µM (inactive); in [18], 10.8 µM (inactive). For the same compound, the GI50 in test [19] is 4.26 µM (inactive); in [20], 1.31 µM (inactive).
Turning to `CC(C)(C)N(Cc1ccccc1)C(=O)/C=C\[S+]([O-])c1ccccc1` (stereo not given), the GI50 in test [1] is 1.83 µM (inactive); in [2], 11.5 µM (inactive); in test [3], 5.85 µM (inactive); in test [4] it was 4.72 µM (inactive); in [5], 3.85 µM (inactive); in test [6], 10.5 µM (inactive). The GI50 in test [7] is 2.43 µM (inactive); in test [8] it was 3.75 µM; in test [9], 2.1 µM (inactive); in [10] it was 4.11 µM (inactive); in [11] it was 4.79 µM (inactive); in test [12] it was 3.27 µM (inactive). In addition, the GI50 in test [13] is 2.32 µM (inactive); in test [14], 3.8 µM (inactive); in test [15], 13.4 µM (inactive); in [16] it was 3.94 µM (inactive); in [17] it was 7.73 µM (inactive); in [18], 2.8 µM (inactive). In addition, the GI50 in test [19] is 7.62 µM (inactive); in test [20] it was 2.61 µM (inactive).
For the compound `O=C1C=CC(=O)[C@H]2C3C=CC(C4C3C3(Cl)C(Cl)=C(Cl)[C@]4(Cl)C3(Cl)Cl)[C@@H]12` (stereo not given in full), the GI50 in [1] is 5.94 µM (inactive); in test [2], 4.03 µM (inactive); in test [3], 11.5 µM (inactive); in test [4], 5.7 µM (inactive); in test [5], 8.97 µM (inactive); in [6] it was 4.02 µM (inactive). Also, the GI50 in [7] is 3.61 µM (inactive); in [8], 4.11 µM; in [9] it was 1.57 µM (inactive); in [10] it was 3.66 µM (inactive); in test [11], 5.79 µM (inactive); in test [12], 4.45 µM (inactive). In addition, the GI50 is 4.4 µM (inactive) in test [13]; 4.17 µM (inactive) in test [14]; 12.5 µM (inactive) in [15]; 5.28 µM (inactive) in [16]; 4.91 µM (inactive) in [17]; 7.76 µM (inactive) in test [18]. Also, the GI50 in test [19] is 14.2 µM (inactive); in test [20] it was 5.58 µM (inactive).
Consider `O=C(Cc1ccccc1)N[C@@H]1COC(=O)[C@@H]2CCCN2C(=O)[C@@H]2CCCN2C1=O` (PhAc-[dS]-Pro-Pro; ester 1-C), for which the GI50 in test [1], in test [2], in test [3], in test [4], in test [5] and in test [6] was > 100 µM (inactive) in each case. Besides, the GI50 in test [7] was > 100 µM (inactive); in [8], greater than 100 µM; in test [9], > 100 µM (inactive); in test [10] it was > 100 µM (inactive); in [11], > 100 µM (inactive); in test [12], > 100 µM (inactive). The GI50 in [13], in test [14], in [15], in test [16], in [17] and in test [18] was > 100 µM (inactive) throughout. Moreover, the GI50 in test [19] and in test [20] was > 100 µM (inactive) each time.
